What all share (assay type): cell-based
Experiment [1] deals with primary human mesenchymal stem cells (hMSCs). Briefly: Induction of chondrogenesis in hMSCs (nodule count, Rhodamine B/Nile Red). The settings on record: 6 days; for EC50: concentration required to induce 50% levels of chondrogenesis vs TGF-β3, read-out: Conc (nM) of 50% TGF-β3 activity; for Emax: relative to TGF-β3 (10 ng/mL) positive control, read-out: Max. Activity as % TGF-β3 activity. From the text:
Representative compounds were screened using primary human mesenchymal stem cells (hMSCs) to determine their ability to induce chondrogenesis (process by which cartilage is developed).
Primary human mesenchymal stem cells (hMSCs) were purchased from Lonza (Walkersville, Md.) and expanded in Mesenchymal Stem Cell Growth Media (Lonza). Cells between passage 3 and 6 were used for the experiments.
To image chondrogenic nodules, the cells were fixed using 4% formaldehyde (Electron Microscopy Sciences), and stained with 2 μg/mL Rhodamine B (Sigma-Aldrich) and 20 μM Nile Red (Sigma-Aldrich) [Johnson K., et.al, A Stem Cell-Based Approach to Cartilage Repair, Science, (2012). […] Number of nodules in each well was normalized to the average of 3 DMSO treated wells on the same plate using Excel (Microsoft Inc.). The normalized averages (fold change over DMSO) of 3 replicate wells for each compound concentration were calculated. Due to solubility limitations of some of the compounds, curve fitting was incomplete leading to inaccurate EC50 determinations.
Using TGF-β3 as a positive control, the concentration of representative compounds required to induce 50% levels of chondrogenesis is reported. In addition, the maximum activity of each compound and the respective dose that each compound reached maximum chondrogenesis activity is reported.

For experiment [2], the system named is Wnt activity. Briefly: Wnt activity screening assay, Sp5-Luc reporter gene in SW480 cells. Conditions: Homo sapiens; for EC50: Sp5-Luc reporter, SW480 cells, overnight incubation. The essentials: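 SW480 cells stably transduced with lentiviral Sp5 promoter (eight TCF/LEF sites)-firefly luciferase, plated at 4,000 cells/well in 1% FBS medium and incubated overnight at 37° C. Luminescence read after BrightGlo addition, normalized to DMSO-only cells; EC50 from four-parameter variable-slope nonlinear regression.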
A general note: Reporter assays use an easily measured gene product as a stand-in for the process of interest.

Experiment [3] concerns SW480 colon cancer cells. Briefly: Cell viability assay (CellTiter-Blue) in SW480 colon cancer cells. Conditions: Homo sapiens; for EC50: 96 h, SW480 cell viability, four days, CellTiter-Blue; for inhibition at 10 µM: SW480, read-out: percent inhibition at 10 μM. The essentials: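 Fluorescence from resazurin reduced to resorufin by metabolically active cells was the read-out, taken after ~3 h with CellTiter-Blue.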
(The colour change of resazurin is a common sign of viable cells or microbes.)

Experiment [4] concerns IL-6. Description: IL-6 inhibition in LPS-stimulated THP-1 cells (HTRF). Conditions: Homo sapiens; for inhibition at 10 µM: THP-1, read-out: percent inhibition at 10 μM; for EC50: THP-1 cells, LPS 500 ng/mL, 22 hours, IL6 HTRF. The essentials:
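THP-1 cells kept 24 h in 1% FBS medium, treated 2 h at 37 °C, then stimulated with 500 ng/mL LPS for another 22 h. IL-6 measured by HTRF as the 665/620 nm ratio; EC50 from a four-parameter fit normalized to DMSO controls.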
Background: TR-FRET usually uses a lanthanide donor and a delayed reading to cut background.

Experiment [5] deals with primary human fibroblasts derived from IPF patients (LL29 cells). Description: Inhibition of the fibrotic process: αSMA staining in TGF-β1 treated LL29 fibroblasts. Conditions: Fibroblast, 96 h, LL29 cells, TGF-β1 20 ng/mL, 4 days, % αSMA positive cells. Summed up:
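IPF-patient-derived LL29 lung fibroblasts in F12 with 1% FBS, stimulated with TGF-β1 alongside compound; TGF-β1 plus DMSO wells served as controls. After 4 days, nuclei stained with 1 μM SYTOX green for 30 min at room temperature, alongside αSMA staining.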

The values that follow come from US10383861B2, “3-(1H-pyrrolo[2,3-C]pyridin-2-yl)-1H-pyrazolo[3,4-C]pyridines and therapeutic uses thereof” (Samumed, LLC, priority 2015, dated 2019).

For orientation: inhibition means the drop in the measured response relative to a control, in per cent.

Consider `Fc1ccc(-c2cncc3[nH]c(-c4n[nH]c5cnc(-c6cncc(CN7CCC(F)(F)C7)c6)cc45)cc23)cc1` [Compound 54, 5-(5-((3,3-Difluoropyrrolidin-1-yl)methyl)pyridin-3-yl)-3-(4-(4-fluorophenyl)-1H-pyrrolo[2,3-c]pyridin-2-yl)-1H-pyrazolo[3,4-c]pyridine], for which the EC50 in experiment [1] was 100 nM; in experiment [2], 3260 nM; in experiment [3], more than 10000 nM; in experiment [4], more than 10000 nM; in experiment [5], 9980 nM. Besides, the Emax in experiment [1] amounted to 78%. Moreover, the figures for the inhibition at 10 µM in experiment [3] and in experiment [4] were 38.6% and 11.2%, respectively.

In the case of `Nc1cncc(-c2cc3c(-c4cc5c(-c6ccccc6F)cncc5[nH]4)n[nH]c3cn2)c1` [Compound 59, 5-(3-(4-(2-Fluorophenyl)-1H-pyrrolo[2,3-c]pyridin-2-yl)-1H-pyrazolo[3,4-c]pyridin-5-yl)pyridin-3-amine], the Emax in experiment [1] stood at 16%. For the same compound, the EC50 in experiment [2] stood at 1630 nM; in experiment [3], 3400 nM; in experiment [4], 3610 nM; in experiment [5], 1770 nM.

As to `CC(C)(C)C(=O)Nc1cncc(-c2cc3c(-c4cc5c(-c6ccncc6)cncc5[nH]4)n[nH]c3cn2)c1` [Compound 120, N-(5-(3-(4-(Pyridin-4-yl)-1H-pyrrolo[2,3-c]pyridin-2-yl)-1H-pyrazolo[3,4-c]pyridin-5-yl)pyridin-3-yl)pivalamide], in experiment [1], the Emax is 30%. Moreover, the inhibition at 10 µM was 22% in experiment [2] (SW480, read-out: percent inhibition at 10 μM); 29% in experiment [3]; 16.4% in experiment [4]. Besides, the EC50 in experiment [2] is more than 10000 nM; in experiment [3], more than 10000 nM; in experiment [4], more than 10000 nM; in experiment [5], 5350 nM.

For `CCNCc1cncc(-c2cc3c(-c4cc5c(-c6ccccc6F)cncc5[nH]4)n[nH]c3cn2)c1` [Compound 62, N-((5-(3-(4-(2-Fluorophenyl)-1H-pyrrolo[2,3-c]pyridin-2-yl)-1H-pyrazolo[3,4-c]pyridin-5-yl)pyridin-3-yl)methyl)ethanamine], the Emax in experiment [1] amounted to 21%. Also, the EC50 was 9140 nM in experiment [2], more than 10000 nM in experiment [3], 3660 nM in experiment [4] and 2640 nM in experiment [5]. The inhibition at 10 µM in experiment [3] was determined as 44.4%.

In the case of `Fc1cccc(-c2cncc3[nH]c(-c4n[nH]c5cnc(-c6cncnc6)cc45)cc23)c1` [Compound 27, 3-(4-(3-Fluorophenyl)-1H-pyrrolo[2,3-c]pyridin-2-yl)-5-(pyrimidin-5-yl)-1H-pyrazolo[3,4-c]pyridine], the EC50 turned out to be 10 nM in experiment [1]; 584 nM in experiment [2]; 1100 nM in experiment [3]; 3060 nM in experiment [4]; 432 nM in experiment [5]. Moreover, the Emax in experiment [1] came to 56%.

On to `FC1(F)CCN(Cc2cncc(-c3cc4c(-c5cc6c(-c7cccnc7)cncc6[nH]5)n[nH]c4cn3)c2)C1` [Compound 110, 5-(5-((3,3-Difluoropyrrolidin-1-yl)methyl)pyridin-3-yl)-3-(4-(pyridin-3-yl)-1H-pyrrolo[2,3-c]pyridin-2-yl)-1H-pyrazolo[3,4-c]pyridine], for which the EC50 in experiment [1] is 2700 nM; in experiment [2] it was 914 nM; in experiment [3], 2140 nM; in experiment [4], 688 nM; in experiment [5], 534 nM. Moreover, the Emax in experiment [1] stood at 54%.
